Test results published in the supplement of paper PMC10307832.

What was measured:
Assay in all cases: relative viability (nuclei count vs DMSO), 5 days (fraction); higher = more cells survive
XMD8-85 + Luminespib = compound: CN1CCN(CC1)C2=CC(=C(C=C2)NC3=NC=C4C(=N3)N(C5=CC=CC=C5C(=O)N4C)C)OC [XMD8-85] + CCNC(=O)c1noc(-c2cc(C(C)C)c(O)cc2O)c1-c1ccc(CN2CCOCC2)cc1 [Luminespib] (partner 0.01 µM)
How it was run: (§1)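 One day after seeding in 1536-well plates, lung cancer cell lines were dosed by pin tool. Dosing was either single-drug or a fixed anchor-drug dose plus five library-drug doses (not always all listed) in √10 steps. After 5 days, nuclei were stained in one fix-and-stain step and counted on 4× images, and relative viability is the nuclei count of treated wells over that of vehicle wells, given as the median of duplicate plates.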

4EGI-1 + Pictilisib = compound: O=C(O)C(Cc1ccccc1[N+](=O)[O-])=NNc1nc(-c2ccc(Cl)c(Cl)c2)cs1 (mixture of isomers) [4EGI-1] + CS(=O)(=O)N1CCN(Cc2cc3nc(-c4cccc5[nH]ncc45)nc(N4CCOCC4)c3s2)CC1 [Pictilisib] (partner 1 µM)
How it was run: as §1

XMD8-85 + Trametinib = compound: CN1CCN(CC1)C2=CC(=C(C=C2)NC3=NC=C4C(=N3)N(C5=CC=CC=C5C(=O)N4C)C)OC [XMD8-85] + CC(=O)Nc1cccc(-n2c(=O)n(C3CC3)c(=O)c3c(Nc4ccc(I)cc4F)n(C)c(=O)c(C)c32)c1 [Trametinib] (partner 0.02 µM)
How it was run: as §1

4EGI-1 + Olaparib = compound: O=C(O)C(Cc1ccccc1[N+](=O)[O-])=NNc1nc(-c2ccc(Cl)c(Cl)c2)cs1 (mixture of isomers) [4EGI-1] + O=C(c1cc(Cc2n[nH]c(=O)c3ccccc23)ccc1F)N1CCN(C(=O)C2CC2)CC1 [Olaparib] (partner 8 µM)
How it was run: as §1

Row | Cell Line | relative viability (XMD8-85 + Luminespib; first compound 0.08 µM) | relative viability (XMD8-85 + Luminespib; first compound 0.253 µM) | relative viability (XMD8-85 + Luminespib; first compound 0.8 µM) | relative viability (XMD8-85 + Luminespib; first compound 2.53 µM) | relative viability (XMD8-85 + Luminespib; first compound 8 µM) | relative viability (4EGI-1 + Pictilisib; first compound 0.5 µM) | relative viability (4EGI-1 + Pictilisib; first compound 5 µM) | relative viability (4EGI-1 + Pictilisib; first compound 15.81 µM) | relative viability (4EGI-1 + Pictilisib; first compound 50 µM) | relative viability (XMD8-85 + Trametinib; first compound 0.08 µM) | relative viability (XMD8-85 + Trametinib; first compound 0.253 µM) | relative viability (XMD8-85 + Trametinib; first compound 0.8 µM) | relative viability (XMD8-85 + Trametinib; first compound 2.53 µM) | relative viability (XMD8-85 + Trametinib; first compound 8 µM) | relative viability (4EGI-1 + Olaparib; first compound 0.5 µM) | relative viability (4EGI-1 + Olaparib; first compound 5 µM) | relative viability (4EGI-1 + Olaparib; first compound 15.81 µM) | relative viability (4EGI-1 + Olaparib; first compound 50 µM) | relative viability (4EGI-1 + Pictilisib; first compound 1.581 µM) | relative viability (4EGI-1 + Olaparib; first compound 1.581 µM)
1 | NCI-H460 | 0.0362 | 0.0282 | 0.0359 | 0.0262 | 0.0291 | 0.381 | 0.366 | 0.331 | 0.261 | 0.176 | 0.122 | 0.2 | 0.133 | 0.055 | 0.425 | 0.436 | 0.244 | 0.134 | – | –
2 | NCI-H1793 | 0.144 | 0.182 | 0.146 | 0.201 | 0.23 | 0.363 | 0.377 | 0.241 | 0.235 | – | 0.483 | 0.37 | 0.481 | 0.442 | 1.02 | 1.13 | 0.504 | 0.234 | 0.266 | 1.16
3 | LXF-289 | 0.611 | 0.57 | 0.584 | – | 0.4 | 0.846 | 0.793 | 0.745 | 0.516 | 0.658 | 0.646 | 0.696 | 0.728 | 0.656 | 1.09 | 1.02 | 1.05 | 0.513 | 0.731 | 0.975
4 | NCI-H1944 | 0.658 | 0.838 | 0.751 | 0.491 | 0.507 | 0.357 | 0.331 | 0.33 | 0.285 | 0.388 | 0.453 | 0.462 | 0.462 | 0.369 | 0.506 | 0.391 | 0.308 | 0.298 | – | –
5 | CAL-12T | 0.315 | 0.652 | 0.339 | 0.333 | 0.216 | – | 0.431 | 0.347 | 0.225 | 0.32 | 0.404 | – | 0.302 | 0.379 | 0.829 | 0.754 | 0.751 | 0.624 | – | 0.484
6 | NCI-H23 | 0.207 | 0.234 | 0.214 | 0.199 | 0.193 | 0.481 | 0.561 | 0.579 | 0.343 | 0.419 | 0.402 | 0.369 | 0.28 | 0.24 | 0.335 | 0.278 | 0.245 | 0.161 | – | –
7 | LK-2 | – | 0.184 | 0.192 | 0.155 | 0.162 | 0.621 | 0.696 | 0.64 | 0.541 | 0.858 | 0.611 | 0.538 | 0.448 | 0.312 | 0.86 | 0.884 | 0.654 | 0.404 | – | –
8 | NCI-H358 | 0.303 | 0.172 | 0.376 | 0.339 | 0.239 | 0.333 | 0.346 | 0.259 | 0.223 | 0.111 | 0.139 | 0.128 | 0.11 | 0.132 | 0.599 | 0.531 | 0.336 | 0.118 | 0.368 | 0.58
9 | NCI-H647 | 0.151 | 0.208 | 0.169 | 0.126 | 0.132 | 0.437 | 0.432 | 0.401 | 0.27 | 0.478 | 0.486 | 0.485 | 0.465 | 0.28 | 0.515 | 0.469 | 0.129 | 0.0662 | – | 0.42
10 | COR-L 105 | 0.99 | 0.842 | 0.645 | – | 0.272 | 0.464 | 0.447 | 0.342 | 0.325 | 0.432 | 0.465 | 0.433 | 0.506 | 0.437 | 0.64 | 0.644 | 0.559 | 0.537 | 0.356 | 0.635
11 | A-427 | 1.06 | 1.08 | 1.25 | 1.1 | 0.669 | 0.855 | 0.705 | 0.589 | 0.364 | 0.755 | 0.731 | 0.697 | 0.714 | 0.631 | 0.777 | 0.766 | 0.643 | 0.276 | 0.409 | –
12 | NCI-H1734 | 0.176 | 0.173 | 0.213 | 0.205 | 0.151 | 0.52 | 0.463 | 0.397 | 0.316 | 0.654 | 0.712 | 0.704 | 0.604 | 0.519 | 0.642 | 0.695 | 0.435 | 0.244 | 0.359 | 0.512
13 | PC-3 [JPC-3] | 0.725 | 0.805 | 0.663 | 0.82 | 0.543 | 0.772 | 0.706 | – | 0.458 | 0.672 | 0.83 | 0.75 | 0.717 | 0.599 | 1.16 | 1.17 | 0.526 | 0.484 | 0.826 | –
14 | LCLC-97TM1 | 0.715 | 0.87 | 0.833 | 0.813 | 0.85 | 0.174 | 0.175 | 0.199 | 0.105 | 0.178 | 0.174 | 0.218 | 0.153 | 0.116 | 0.355 | 0.278 | 0.328 | 0.0574 | – | –
15 | ChaGo-K-1 | 0.603 | 0.577 | 0.71 | 0.585 | 0.501 | 0.612 | 0.759 | 0.453 | 0.219 | 0.926 | 0.908 | 0.944 | 0.962 | 0.668 | 0.386 | 0.407 | 0.34 | 0.217 | – | 0.406
16 | COR-L23 | 0.504 | 0.589 | 0.963 | – | 0.487 | 0.96 | 0.827 | 0.491 | 0.135 | 0.488 | 0.548 | 0.651 | 0.548 | 0.333 | 0.35 | 0.344 | 0.271 | 0.175 | 0.549 | 0.217
17 | NCI-H1395 | 0.784 | 0.603 | 0.731 | 0.684 | 0.482 | 0.638 | 0.735 | 0.567 | 0.346 | 0.832 | 1.08 | 0.995 | 1.04 | 0.829 | 0.492 | 0.47 | 0.457 | 0.394 | – | –
